Consider one molecule from patent US20180354909A1, “SUBSTITUTED BENZIMIDAZOLIUM, PYRIDO-IMIDAZOLIUM, OR PYRAZINO-IMIDAZOLIUM COMPOUNDS AS CHEMOTHERAPEUTICS” (The Board of Regents of the University of Texas System, priority 2015, published 2018).

Data set [1] can be described thus: In vivo plasma PK, 10 mg/kg IP. Set-up: species or system mice. The note with it: female, CD-1, mouse. How it is done: 22E. 21 female CD-1 mice (6 wks) were administered 10 mg/kg L129 IP, 0.2 ml/mouse formulated as 5% DMSO, 10% Cremophor EL, and 85% D5W. Plasma was processed from whole blood by centrifugation of the ACD treated blood for 10′ at 10,000 rpm in a standard centrifuge. Brains were weighed and snap frozen in liquid nitrogen. Brain homogenates were prepared by mincing the brain tissue and homogenizing in a 3-fold volume of PBS (total volume of homogenate in mL=4× weight in g.) 100 microliters plasma or brain homogenate was mixed with 200 microliters of acetonitrile containing formic acid and an internal standard (final concentration of formic acid=0.1%, IS=25 ng/mL). The samples were vortexed 15 sec, incubated at room temp for 10′ and spun 2×13,200 rpm in a standard microcentrifuge. The supernatant was then analyzed by LC/MS/MS. Buffer A: Water+0.1% formic acid; Buffer B: MeOH+0.1% formic acid; flow rate 1.5 ml/min; column Agilent C18 XDB column, 5 micron packing 50×4.6 mm size; 0-1.5 min 3% B, 1.5-2.5 min gradient to 100% B; 2.5-3.5 min 100% B, 3.5-3.6 min gradient to 3% B; 3.6-4.5 min 3% B; IS N-benzylbenzamide (transition 212.1 to 91.1); Compound transition 474.2 to 336.3. These methods were used data obtained in the FIGS. 22B and 22E.

The test system of data set [2] is MEF. Kind of data set: Cytotox testing (CellTiter-Glo) in MEF. In kind it is cell-based, mouse. As to the method: (§1) Mut6 tumor cells were cultured in DMEM/F12 media supplemented by EGF (10 ng/mL), basic FGF (10 ng/mL), heparin (4 ug/mL), glucose (total 21 mM), NaHCO3 (113 μg/mL), Hepes (119 μg/mL), glutamine (2 mM), sodium pyruvate (1 mM), N2 supplement (ThermoFisher Gibco 17502-048, 100×, at 100-fold dilution), B27 supplement (ThermoFisher Gibco 12587-010, 50×, at 100-fold dilution), and penicillin/streptomycin (ThermoFisher, final 1%). Cells were maintained in Ultra-low attachment plate (Corning) as sphere-forming cells. For ATP assays and protein/RNA isolation, cells were plated into 96-well plates or 6-well plated that were coated with poly-lysine (Sigma P6407, 10 μg/mL in PBS, 4 hr at 37° C.) and laminin (ThermoFisher 23017015, ˜5 mg/L in PBS, overnight at 37° C.). MEFs and Astrocytes were cultured in DMEM supplemented with 10% FBS and 1% Penicillin/Streptomycin.
2,000 cells were plated into each well of 96-well plates. About 3 hours later, cells were treated by 12M11, at 800-fold dilution (4 mM stock was diluted into 5 μM final concentration). Cells were further incubated for 4 days. CellTiter-Glo assay (Promega) was performed according to manufacturer's instructions, by adding 20 μL of reagent into each well. Luminescence signal was detected by the PolarStar plate reader (BMG Labtech). […] EC505 were calculated by GraphPad Prism6 software.

The subject of a further data set is astrocytes. The data set can be described thus: Cytotox testing (CellTiter-Glo) in astrocytes. It is filed as cell-based. As to the method: as §1
2,000 cells were plated into each well of 96-well plates. About 3 hours later, cells were treated by 12M11, at 800-fold dilution (4 mM stock was diluted into 5 μM final concentration). Cells were further incubated for 4 days. CellTiter-Glo assay (Promega) was performed according to manufacturer's instructions, by adding 20 μL of reagent into each well. Luminescence signal was detected by the PolarStar plate reader (BMG Labtech). Experiments were performed in quadruplicate, and results are presented with mean average −/+ standard deviation. EC505 were calculated by GraphPad Prism6 software.

Data set [3] relates to cancer cell lines (HeLa, DAOY, MCF7, 435 and HCC38 cells). Kind of data set: CellTiter-Glo cell viability in cancer cell lines. It is filed as cell-based, human. The note with it: significant proportion of cell lines tested, excluding DAOY and MEF. How it is done: The activity of compound 12M11 was tested against a variety of cancer cell lines (see FIG. 2A), including those are routinely used in the literature such as HeLa, DAOY, MCF7, 435 and HCC38 cells. […] Just as for MEF cells, without wishing to be bound by any theory, it is believed that the resistance of DAOY cells to the OxyPhos inhibitor 12M11 can be attributed to their higher ATP levels per cell (FIG. 13B) combined with lower intrinsic OxyPhos activity as assessed by TMRE staining (FIG. 13C).

The subject of another data set is ATF4. The data set can be described thus: ATF4 western blot in Mut6 cells. It is filed as cell-based, mouse. As to the method: Mut6 tumor cells and MEFs were treated by DMSO or 1 μM 12M11 for the indicated times. Cell lysate was prepared by RIPA buffer with phosphatase inhibitor (Thermo) and protease inhibitor (Roche). Antibodies are purchased from Santa Cruz (ATF4), Cell Signaling (pS6, S6, AMPK, and pAMPK), and Millipore (Gapdh).

Data set [4] deals with mitochondrial membrane potential. The data set can be described thus: TMRE mitochondrial membrane potential staining in Mut6 cells. The note with it: within 30 min. In kind it is cell-based, mouse. How it is done: TMRE mitochondrial membrane potential assay kit was purchased from Abcam (113852) and the assay was performed according to the manufacturer's protocol. Briefly, cells were pre-incubated with 1 μM 12M11 (10 min or 18 hrs) or 100 nM FCCP (10 min) and incubated for additional 20 min with 200 nM TMRE before pictures were taken.

Data set [5] relates to Mut6. The data set can be described thus: OCR and ECAR measurement (Seahorse) in Mut6. In kind it is cell-based, mouse. How it is done:
Oxygen consumption rate (OCR) and extracellular acidification rate (ECAR) were measured by Seahorse Bioscience instrument (XF24) with 80-90% confluent cells, according to the manufacturer's protocol. Briefly, cells were equilibrated for 1 hr at 37° C. incubator lacking CO2. Oxygen concentration and pH in media were measured during sequential treatment with 12M11, Oligomycin (1 μM), FCCP (1 μM), and Rotenone (200 nM). A minimum of three wells were utilized per condition to calculate OCR and ECAR.

The test system of data set [6] is Mut6. Kind of data set: Glucose and lactate in culture media of Mut6 cells. It is filed as cell-based, mouse. The note with it: Mut6, 7 hrs incubation. How it is done:
Mut6 cells were incubated with 12M11 for 7 hrs, and the collected culture media was measured for glucose, lactate, glutamine, and glutamate (Birsoy, et al., 2014; Lunt and Vander Heiden, 2011). […] Oxygen consumption and extracellular acidification using a XF24 Seahorse analyzer was used to measure cellular oxygen consumption rate (OCR) and extracellular acidification rate (ECAR) (FIG. 8).

For data set [7], the system named is Mut6. The data set can be described thus: Change in ATP levels in Mut6 cells. In kind it is cell-based, mouse. Conditions: Mut6, 2-6 hr. How it is done:
(§2) Mut6 tumor cells or MEFs were plated into 96-well plates. One day later, Oligomyin (2 μM), Rotenone (200 nM), or 12M11 (1 μM) were added into each well and then ATP levels were measured by Cell-Titer Glo (Promega) after 2 hr, 4 hr, or 6 hr incubation. Each data is mean of six replicates with ± standard deviation.

Data set [8] has as its system MEF. The data set can be described thus: Change in ATP levels in MEF cells. It is filed as cell-based, mouse. Conditions: 2-6 hr. As to the method: as §2

Entries after “also recorded” stand apart in the source; their conditions may differ.

In turn, `CCc1n(CC(=O)O[C@@H]2C[C@H](C)CC[C@H]2C(C)C)c2ccccc2[n+]1C.[Cl-]` [Compound 12M11] showed a Cmax in [1] of 2.7 ng/mL. In addition, the “activity against MEF” value in the data set on MEF [2] was “no to minimal effect; also recorded: no activity”. The “activity against astrocytes” value in the data set on astrocytes was “no to minimal effect; also recorded: no activity; also recorded: uniquely resistant”. In addition, the EC50 entry in data set [3] is “mid nanomolar to low micromolar range”. In addition, the ATF4 protein level entry in the data set on ATF4 was “activation”. Also, in [4], the “oxidative phosphorylation / mitochondrial membrane potential by TMRE staining” value was “impairs oxidative phosphorylation”. For the same molecule, in the data set on Mut6 [5], the “extracellular acidification rate (ECAR)” value is reported as “dramatically increases” and the “oxygen consumption rate (OCR)” value is “decrease”. For the same molecule, in the data set on Mut6 [6], the lactate secretion result is reported as “increased” and the uptake of glucose entry is recorded as “increased”. In addition, the “ATP levels (% change from basal)” value in the data set on Mut6 [7] was “decrease significantly”. In addition, in the data set with MEF [8], the “ATP levels (% change from basal)” value is reported as “increase”.
